Reference: ChEMBL document CHEMBL1123015, “Thiol-containing androgens as suicide substrates of aromatase” (J Med Chem, 1985)

Biological target: T1, Aromatase (Homo sapiens, UniProt P11511)
T1 sequence (P11511 whole entry): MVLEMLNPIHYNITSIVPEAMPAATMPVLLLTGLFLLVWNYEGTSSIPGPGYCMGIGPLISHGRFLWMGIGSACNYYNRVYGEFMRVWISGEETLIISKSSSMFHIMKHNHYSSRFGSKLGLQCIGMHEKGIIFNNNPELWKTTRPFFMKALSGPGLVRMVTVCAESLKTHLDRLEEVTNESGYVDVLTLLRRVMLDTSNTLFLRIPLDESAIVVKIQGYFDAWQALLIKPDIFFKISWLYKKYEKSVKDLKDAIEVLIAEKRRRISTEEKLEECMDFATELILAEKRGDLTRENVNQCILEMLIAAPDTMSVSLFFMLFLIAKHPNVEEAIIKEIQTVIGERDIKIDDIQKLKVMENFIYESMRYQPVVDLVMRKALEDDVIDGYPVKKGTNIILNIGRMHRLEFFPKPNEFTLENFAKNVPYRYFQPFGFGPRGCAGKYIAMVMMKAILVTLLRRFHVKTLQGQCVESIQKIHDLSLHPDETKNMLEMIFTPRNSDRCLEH
Test: Percentage aromatase activity remaining in human placental microsomes with NADPH
Type: functional, Placenta

`C[C@]12CC[C@H]3[C@@H](CCC4=CC(=O)CC[C@@]43CS)[C@@H]1CCC2=O` gave an Activity of 94%.
